The text below walks through data of patent publication US9988400B2 (Genentech, Inc., priority 2013, dated 2018).

T1 sequence (Q12879 23-1464, other chains not shown): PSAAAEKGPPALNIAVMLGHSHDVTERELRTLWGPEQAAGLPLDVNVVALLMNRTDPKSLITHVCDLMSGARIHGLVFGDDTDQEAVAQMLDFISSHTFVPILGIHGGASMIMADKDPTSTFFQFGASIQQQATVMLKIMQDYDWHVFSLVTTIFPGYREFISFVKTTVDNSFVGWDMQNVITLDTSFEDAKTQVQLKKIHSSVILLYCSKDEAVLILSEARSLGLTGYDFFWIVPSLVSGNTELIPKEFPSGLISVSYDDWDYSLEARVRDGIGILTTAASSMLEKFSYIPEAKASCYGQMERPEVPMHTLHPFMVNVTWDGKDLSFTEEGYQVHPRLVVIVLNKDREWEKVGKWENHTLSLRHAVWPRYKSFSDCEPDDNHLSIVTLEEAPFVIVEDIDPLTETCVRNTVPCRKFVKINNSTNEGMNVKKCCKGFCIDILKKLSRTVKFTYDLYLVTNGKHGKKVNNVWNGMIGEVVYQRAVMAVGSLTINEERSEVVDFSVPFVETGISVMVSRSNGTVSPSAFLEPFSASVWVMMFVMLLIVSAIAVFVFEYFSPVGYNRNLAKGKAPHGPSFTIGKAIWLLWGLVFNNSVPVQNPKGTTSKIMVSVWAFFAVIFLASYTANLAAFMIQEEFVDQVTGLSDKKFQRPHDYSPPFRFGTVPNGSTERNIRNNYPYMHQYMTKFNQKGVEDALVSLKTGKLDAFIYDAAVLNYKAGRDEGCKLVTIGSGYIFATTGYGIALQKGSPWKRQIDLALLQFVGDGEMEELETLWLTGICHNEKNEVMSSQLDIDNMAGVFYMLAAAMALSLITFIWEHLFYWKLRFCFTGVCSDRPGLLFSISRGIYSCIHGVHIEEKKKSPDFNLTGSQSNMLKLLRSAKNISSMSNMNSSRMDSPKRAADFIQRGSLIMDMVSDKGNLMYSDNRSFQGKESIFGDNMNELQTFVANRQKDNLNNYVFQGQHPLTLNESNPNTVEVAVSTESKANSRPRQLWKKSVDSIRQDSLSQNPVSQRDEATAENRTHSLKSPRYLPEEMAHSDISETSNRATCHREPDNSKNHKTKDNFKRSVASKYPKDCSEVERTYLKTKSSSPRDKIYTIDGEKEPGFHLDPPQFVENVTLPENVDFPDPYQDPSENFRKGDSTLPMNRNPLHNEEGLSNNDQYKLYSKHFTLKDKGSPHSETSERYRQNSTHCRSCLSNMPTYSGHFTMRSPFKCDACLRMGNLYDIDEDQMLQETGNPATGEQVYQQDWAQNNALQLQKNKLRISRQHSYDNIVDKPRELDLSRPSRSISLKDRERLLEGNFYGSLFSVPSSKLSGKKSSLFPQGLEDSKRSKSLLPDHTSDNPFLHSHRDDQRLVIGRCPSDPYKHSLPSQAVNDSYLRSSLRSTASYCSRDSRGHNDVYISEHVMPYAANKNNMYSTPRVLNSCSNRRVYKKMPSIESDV

The experiment concerns the target T1, HEK cells stably transfected with tetracycline inducible hNR1 and hNR2A (Homo sapiens, UniProt Q05586+Q12879).
T1 construct: expressed in transfected cells; host or cells: HEK cells, stably transfected, tetracycline/doxycycline inducible
In words: Assay 1: Cell-Based Assay, cytosolic calcium response to positive allosteric modulators (with 30 μM glycine and 300 nM L-glutamate, EC30). To be noted: Table 3; cytosolic calcium response, with 30 μM glycine and 300 nM L-glutamate (EC30); — = no plateau was reached. The method in brief:
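Cells induced 24 h with 7.5 μg mL^−1 doxycycline plus 500 μM (+)-ketamine, loaded 60 min at 37 °C with calcium dye in Mg-free HBSS (1.8 mM Ca, probenecid, 10 μM (+)-ketamine, pH 7.15). Peak RFU over 5 min after compound addition, scaled to 100 μM L-glutamate (100%) and 0 μM (0%); four-parameter Hill fit for EC50, max % if no plateau.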
In the case of `CCNC(=O)c1c(C)sc2nc(Cc3cccc(C4(F)CC4)c3F)cc(=O)n12` [compound 35, N-ethyl-7-[[2-fluoro-3-(1-fluorocyclopropyl)phenyl]methyl]-2-methyl-5-oxo-thiazolo[3,2-a]pyrimidine-3-carboxamide], the concentration giving a half-maximal response (EC50) (commonly the concentration at which the effect is half-maximal) turned out to be 3.99 µM.

Regarding `C=C(CF)c1cccc(Cc2cc(=O)n3c(C(=O)NCC)c(C)sc3n2)c1F` [compound 36, N-ethyl-7-[[2-fluoro-3-[1-(fluoromethyl)vinyl]phenyl]methyl]-2-methyl-5-oxo-thiazolo[3,2-a]pyrimidine-3-carboxamide], the EC50 came out at 1.72 µM.

`C#Cc1cc(F)c(F)cc1Cc1cc(=O)n2c(C(=O)NC)c(C)sc2n1` [compound 37, 7-[(2-ethynyl-4,5-difluoro-phenyl)methyl]-N,2-dimethyl-5-oxo-thiazolo[3,2-a]pyrimidine-3-carboxamide]: the EC50 was determined as 9.02 µM.

For `Cc1sc2nc(Cc3cccc(C#N)c3F)cc(=O)n2c1C1CC1C(F)(F)F` (centres unmarked) [compound 38, 2-fluoro-3-[[2-methyl-5-oxo-3-[2-(trifluoromethyl)cyclopropyl]thiazolo[3,2-a]pyrimidin-7-yl]methyl]benzonitrile], the concentration for a half-maximal effect (EC50) turned out to be 0.533 µM.

With `Cc1sc2nc(Cc3cccc(C#N)c3F)cc(=O)n2c1C1CC1(F)F` (centres unmarked) [compound 39, 3-[[3-(2,2-Difluorocyclopropyl)-2-methyl-5-oxo-thiazolo[3,2-a]pyrimidin-7-yl]methyl]-2-fluorobenzonitrile], the EC50 was 6.1 µM.

On to `CCNC(=O)c1c(C(F)(F)F)sc2nc(Cc3cccc(C(F)(F)F)c3F)cc(=O)n12` [compound 40, N-ethyl-7-[[2-fluoro-3-(trifluoromethyl)phenyl]methyl]-5-oxo-2-(trifluoromethyl)thiazolo[3,2-a]pyrimidine-3-carboxamide], for which the concentration giving a half-maximal response (EC50) was 1.32 µM.

With `CCNC(=O)c1c(C(F)(F)F)sc2nc(Cc3cccc(C#N)c3F)cc(=O)n12` [compound 41, 7-[(3-cyano-2-fluoro-phenyl)methyl]-N-ethyl-5-oxo-2-(trifluoromethyl)thiazolo[3,2-a]pyrimidine-3-carboxamide], the half-maximal effective concentration (EC50) was found to be 4.78 µM.

Turning to `CCNC(=O)c1c(C(F)(F)F)sc2nc(Cc3cccc(C(F)F)c3F)cc(=O)n12` [compound 42, 7-[[3-(difluoromethyl)-2-fluoro-phenyl]methyl]-N-ethyl-5-oxo-2-(trifluoromethyl)thiazolo[3,2-a]pyrimidine-3-carboxamide], the concentration giving a half-maximal response (EC50) turned out to be 1.57 µM.

Turning to `CCNC(=O)c1c(C(F)(F)F)sc2nc(Cn3nc(C(F)(F)F)cc3Cl)cc(=O)n12` [compound 43, 7-[[5-chloro-3-(trifluoromethyl)pyrazol-1-yl]methyl]-N-ethyl-5-oxo-2-(trifluoromethyl)thiazolo[3,2-a]pyrimidine-3-carboxamide], the EC50 was 0.362 µM.

Consider `CCNC(=O)c1c(C(F)(F)F)sc2nc(Cn3nc(Cl)cc3C(F)(F)F)cc(=O)n12` [compound 44, 7-[[3-chloro-5-(trifluoromethyl)pyrazol-1-yl]methyl]-N-ethyl-5-oxo-2-(trifluoromethyl)thiazolo[3,2-a]pyrimidine-3-carboxamide], for which the EC50 stood at 0.685 µM.

For the compound `CCNC(=O)c1c(C(F)(F)F)sc2nc(Cn3nc(C(F)(F)F)cc3C)cc(=O)n12` [compound 45, N-ethyl-7-[[5-methyl-3-(trifluoromethyl)pyrazol-1-yl]methyl]-5-oxo-2-(trifluoromethyl)thiazolo[3,2-a]pyrimidine-3-carboxamide], the concentration giving a half-maximal response (EC50) amounted to 1.25 µM.

`CCNC(=O)c1c(C(F)(F)F)sc2nc(Cn3nc(C)cc3C(F)(F)F)cc(=O)n12` [compound 46, N-ethyl-7-[[3-methyl-5-(trifluoromethyl)pyrazol-1-yl]methyl]-5-oxo-2-(trifluoromethyl)thiazolo[3,2-a]pyrimidine-3-carboxamide]: the concentration giving a half-maximal response (EC50) was found to be 7.04 µM.

For the compound `Cc1sc2nc(Cc3cccc(C(F)(F)F)c3F)cc(=O)n2c1-c1ncc[nH]1` [compound 47, 7-[[2-fluoro-3-(trifluoromethyl)phenyl]methyl]-3-(1H-imidazol-2-yl)-2-methyl-thiazolo[3,2-a]pyrimidin-5-one], the EC50 worked out at 5.14 µM.

In the case of `CCNC(=O)c1c(C)sc2nc(Oc3cccc(C(F)(F)F)c3F)cc(=O)n12` [compound 48, N-ethyl-7-[2-fluoro-3-(trifluoromethyl)phenoxy]-2-methyl-5-oxo-thiazolo[3,2-a]pyrimidine-3-carboxamide], the EC50 is 7.66 µM.

`CCNC(=O)c1c(C)sc2nc(Cc3cc(C)cc(C#N)c3F)cc(=O)n12` [compound 49, 7-[(3-cyano-2-fluoro-5-methyl-phenyl)methyl]-N-ethyl-2-methyl-5-oxo-thiazolo[3,2-a]pyrimidine-3-carboxamide]: the concentration for a half-maximal effect (EC50) was 17.5 µM.

For `CCNC(=O)c1c(C(F)(F)F)sc2nc(Cc3cccc(Cl)c3F)cc(=O)n12` [compound 50, 7-[(3-chloro-2-fluoro-phenyl)methyl]-N-ethyl-5-oxo-2-(trifluoromethyl)thiazolo[3,2-a]pyrimidine-3-carboxamide], the EC50 worked out at 6.4 µM.

Consider `Cc1sc2nc(Cc3cccc(C(F)(F)F)c3F)cc(=O)n2c1C(=O)NCC(F)(F)F` [compound 51, 7-[[2-fluoro-3-(trifluoromethyl)phenyl]methyl]-2-methyl-5-oxo-N-(2,2,2-trifluoroethyl)thiazolo[3,2-a]pyrimidine-3-carboxamide], for which the concentration for a half-maximal effect (EC50) was found to be 3.16 µM.

Take `Cc1sc2nc(Cn3nc(C(F)(F)F)cc3C)cc(=O)n2c1C(=O)NCC(F)(F)F` [compound 52, 2-methyl-7-[[5-methyl-3-(trifluoromethyl)pyrazol-1-yl]methyl]-5-oxo-N-(2,2,2-trifluoroethyl)thiazolo[3,2-a]pyrimidine-3-carboxamide]: the EC50 was 8.76 µM.

In the case of `CNC(=O)c1c(C(F)(F)F)sc2nc(Cn3nc(C(F)(F)F)cc3C3CC3)cc(=O)n12` [compound 53, 7-[[5-cyclopropyl-3-(trifluoromethyl)pyrazol-1-yl]methyl]-N-methyl-5-oxo-2-(trifluoromethyl)thiazolo[3,2-a]pyrimidine-3-carboxamide], the 50% effective concentration (EC50) was determined as 0.635 µM.

Regarding `CNC(=O)c1c(C(F)(F)F)sc2nc(Cn3nc(C4CC4)cc3C(F)(F)F)cc(=O)n12` [compound 54, 7-[[3-cyclopropyl-5-(trifluoromethyl)pyrazol-1-yl]methyl]-N-methyl-5-oxo-2-(trifluoromethyl)thiazolo[3,2-a]pyrimidine-3-carboxamide], the EC50 worked out at 2.2 µM.

With `CNC(=O)c1c(C(F)(F)F)sc2nc(Cn3nc(C(F)(F)F)cc3Cl)cc(=O)n12` [compound 55, 7-[[5-chloro-3-(trifluoromethyl)pyrazol-1-yl]methyl]-N-methyl-5-oxo-2-(trifluoromethyl)thiazolo[3,2-a]pyrimidine-3-carboxamide], the half-maximal effective concentration (EC50) worked out at 1.16 µM.

In the case of `CNC(=O)c1c(C(F)(F)F)sc2nc(Cn3nc(Cl)cc3C(F)(F)F)cc(=O)n12` [compound 56, 7-[[3-chloro-5-(trifluoromethyl)pyrazol-1-yl]methyl]-N-methyl-5-oxo-2-(trifluoromethyl)thiazolo[3,2-a]pyrimidine-3-carboxamide], the EC50 is 2.27 µM.

Take `Cc1sc2nc(Cn3nc(C(F)(F)F)cc3C3CC3)cc(=O)n2c1C(=O)NCC(F)(F)F` [compound 57, 7-[[5-cyclopropyl-3-(trifluoromethyl)pyrazol-1-yl]methyl]-2-methyl-5-oxo-N-(2,2,2-trifluoroethyl)thiazolo[3,2-a]pyrimidine-3-carboxamide]: the EC50 stood at 0.627 µM.
